The text below walks through data of patent publication US9649279B2, “Fortified micronutrient salt formulations” (Massachusetts Institute of Technology, priority 2013, dated 2017).

Entries after “also recorded” stand apart in the source; their conditions may differ.

The nature of data set [1]: Autoclaving of vitamin B12 in EPO-HA microspheres. In kind it is physicochemical. Particulars: 16 psig and 250° F. for 30 minutes. Here is the method: Vitamin B12 was encapsulated in the EPO-HA microspheres and subjected to autoclaving. The autoclaving conditions were 16 psig and 250° F. for 30 minutes. […] Thus, the formulations can survive and prevent the leakage of MNs under autoclaving conditions.

The nature of data set [2]: In vitro release of micronutrients from EPO microspheres. To be noted: for release in SGF after 0.5 hours / release in SGF: SGF at 37° C.; for release in water: water at room temperature and 100° C. In kind it is physicochemical. An excerpt:
Eight essential micronutrients, presented in Table 3, were encapsulated and their release studied in vitro.
In-house assays were developed for micronutrient detection and determination of encapsulation efficiency and release kinetics.

A short description of data set [3]: Release of EPO-coated micronutrients in water then SGF (ELISA). In kind it is physicochemical. Particulars: for release in SGF / release in water: 5% EPO coating; for release in SGF: SGF at 37° C., after one hour; for release in water: water at 25° C. and 100° C., one hour; for stability in the formulations by ELISA: not degraded or denatured. How it is done: To mimic food preparation then ingestion, the samples were submerged in 4 mL water (at 25° C. or 100° C.) for one hour and transferred to 4 mL simulated gastric fluid at 37° C. for two hours.

The nature of data set [4]: Vitamin C stability and recovery under cooking conditions. The data set is classed as physicochemical. How it is done:
Formulations were tested for factors that increase stability and leakage characteristics for particular nutrients.
Ascorbic acid can become oxidixed and hydrolyzed, resulting in reduced bioactivity. Compounds specifically identified as stabilizing ascorbic acid, trans-Ferulic Acid (FA), Caffeic Acid (CA), and p-Coumaric Acid (p-CA), can be used in the particles and matrix to stabilize vitamin C.
To increase the loading of the ascorbic acid in the formulations, large amounts of ascorbic acid need to be added in the initial formulation process. However, the use of large amount of ascorbic acid can lower the pH of the water during the formulation, and this low pH condition can also dissolve the polymer we use to make the microparticles. To avoid this low pH issue, sodium ascorbate, which has equivalent bioactivity as ascorbic acid, can be used. Over 60 wt % of sodium ascorbate (NaAA) can be recovered after 2 hrs heating at 100° C.

For data set [5] the following is noted: enteric coated, three month storage, 25° C./20% RH and 45° C./60% RH; cited from earlier work.
Data set [6] can be described thus: Vitamin D3 stability and recovery. In kind it is physicochemical. How it is done:
Vitamin D3 is not stable under heat. Alteration involves ring-closure that allows generation of pyro- and isopyro-isomers. […] However, it degraded in water at 100° C. after 2 hours. The recovery of vitamin D3 in water at 100° C. is concentration-dependent. When the starting amount of vitamin D3 increased, the recovery after 2 hours cooking also went up, from 2% (15 μg), to 12% (60 μg), to 40% (240 μg), and to 60% (1 mg). The encapsulation of vitamin D3 in EPO matrix helped to stabilize the vitamin D3. The characteristic absorbance peak of vitamin D3 was preserved in D3-EPO after 100° C. in water for 2 hours. […] With HPLC, the recovery of D3 in D3-EPO was quantified to be around 47%.

As to Vitamin B12, the leakage under autoclaving entry in data set [1] is listed as “No severe leakage”. For the same molecule, in data set [2] (boiling, two hours, 1% oil added), the “effect of 1% oil during boiling on release” value is listed as “did not increase release”. Also, in data set [3], the “release in SGF” value is listed as “released all; also recorded: near complete release”, the release in water entry is reported as “no release; also recorded: negligible release” and the “stability in the formulations by ELISA” value is reported as “stable”.
For the molecule `O=C1O[C@H]([C@@H](O)CO)C([O-])=C1O.[Na+]` [NaAA, sodium ascorbate], the recovered after heating entry in data set [4] (2 hrs heating at 100° C.) is recorded as “Over 60 wt %”.
On to `Nc1nc2ncc(CNc3ccc(C(=O)N[C@@H](CCC(=O)O)C(=O)O)cc3)nc2c(=O)[nH]1` [Vitamin B9, folic acid], for which the “release in SGF after 0.5 hours” value in data set [2] (EPO-gelatin-microspheres) is “Complete release”. Moreover, the “release in 100° C. boiling water” value in data set [2] (EPO-gelatin-microspheres, two hours) is listed as “Slight leakage”. Besides, the “release at room temperature” value in data set [2] (EPO-gelatin-microspheres, water, room temperature, two hours) is listed as “Limited release”. In data set [3], the “release in SGF” value is “near complete release”, the release in water result is reported as “negligible release” and the “stability in the formulations by ELISA” value is “stable”. In data set [3] (listed as B9), the “release in SGF” value is “released all” and the release in water entry is given as “no release”.
`O=C1O[C@H]([C@@H](O)CO)C(O)=C1O` [Vitamin C, Ascorbic acid]: the “release during cooking at 100° C.” value in data set [4] (increased concentration of the polymer coating) is listed as “significantly reduced”. For the same molecule, the “release in SGF after 0.5 hours” value in data set [2] (EPO-MS) was “Complete release”. Further, the “release in water after two hours” value in data set [2] (EPO-MS, room temperature and 100° C. boiling water, two hours) was “Limited release”.
On to `CCCCCCCCCCCCCCCC(=O)OC/C=C(C)/C=C/C=C(C)/C=C/C1=C(C)CCCC1(C)C` [Vitamin A, Retinyl Palimitate], for which the “losses of the micronutrient after storage” value in data set [5] is listed as 50-99%. For the same molecule, in data set [2] (EPO-MS), the “release in SGF” value is recorded as “Complete release” and the release in water result is “limited release”.
Consider `C=C1CC[C@H](O)C/C1=C/C=C1\CCC[C@]2(C)[C@@H]([C@H](C)CCCC(C)C)CC[C@@H]12` [Vitamin D3, cholecalciferol], for which, in data set [6] (100° C. in water for 2 hours), the “characteristic absorbance peak (UV spectrum) after heating” value is “totally degraded”. Also, the “stability in acidic condition” value in data set [6] (SGF (pH=1.2) at 37° C.) was “stable”. In data set [6] (water, 100° C., after 2 hours), the “stability in water at 100° C.” value is “degraded”. In addition, in data set [6] (water, room temperature), the “stability in water at room temperature” value was “stable”. Moreover, in data set [2] (EPO-MS), the “release in SGF” value was “Fast and complete release”; the release in water result was “slow and limited release”.
